Results reported in US11351148B1, “Pharmaceutical composition Mix A to treat health conditions associated with elevated glucose levels” (priority 2021, dated 2022).

Tested on: skeletal muscle cells
Test: In vitro uptake of 2-DG (glucose derivative) in skeletal muscle cells
Format: cell-based, rat
Experimental: The assay was performed according to manufactures' protocol. Briefly, […] L6 cell line cells were seeded and grown to confluency in white 96 well plates in culture medium containing 10% FBS (serum). After treating with various nutrients with or without insulin cells were starved by incubating in DMEM without glucose and serum. Samples were processed using Glucose Uptake Assay kit according to manufacturer's protocol that uses the glucose analog 2-deoxyglucose (2-DG) to detect and quantify glycose uptake in cells. Luminescence was measured by a Tecan luminometer. 4 repetitions were performed for each treatment when testing individual components and 3 repetitions when testing mixes.

Row | Compound | stimulating effect on glucose uptake by individual compounds compared to controls (FIG. 6, 0.0001 ug/ml, 24 h at 37° C.) | glucose uptake by the cells, insulin alone (FIG. 8, insulin alone at different concentrations)
1 | [Cr] [chromium] | highest stimulating effect | –
2 | Insulin: human insulin obtained from Sigma | – | concentration dependent increase
